Where a SMILES comes first, the peptide text is derived from it. Bridges are numbered along the chain shown (N, C = ends). [ ]: non-standard residue; d: D form. The star is where a group is joined. hPhe(3-Cl-4-CF3) = N[C@@H](CCc1ccc(C(F)(F)F)c(Cl)c1)C(=O)O; NPrPhe(4-CF3) = CCCN[C@@H](Cc1ccc(C(F)(F)F)cc1)C(=O)O; NMeGly(cPent) = CN[C@H](C(=O)O)C1CCCC1; NMeD = CN[C@@H](CC(=O)O)C(=O)O; NMeL = CN[C@@H](CC(C)C)C(=O)O; Morpholide = C1CN(*)CCO1; Ac5c = NC1(C(=O)O)CCCC1; Aze = O=C(O)[C@@H]1CCN1; Sar = CNCC(=O)O
Key:
[1] = target: GDP-bound NRAS wild-type protein (Homo sapiens, UniProt P01111); assay: Binding to NRAS by surface plasmon resonance (SPR), Single Cycle Kinetics; details: for NRAS/KRAS (ratio of KD value with respect to NRAS to KD value with respect to KRAS): GDP-bound NRAS wild-type vs GDP-bound KRAS wild-type
[2] = target: GDP-bound HRAS wild-type protein (Homo sapiens, UniProt P01112); assay: Binding to HRAS by surface plasmon resonance (SPR), Single Cycle Kinetics; details: for HRAS/KRAS (ratio of KD value with respect to HRAS to KD value with respect to KRAS): GDP-bound HRAS wild-type vs GDP-bound KRAS wild-type
Chain of GDP-bound HRAS wild-type protein (P01112 whole entry): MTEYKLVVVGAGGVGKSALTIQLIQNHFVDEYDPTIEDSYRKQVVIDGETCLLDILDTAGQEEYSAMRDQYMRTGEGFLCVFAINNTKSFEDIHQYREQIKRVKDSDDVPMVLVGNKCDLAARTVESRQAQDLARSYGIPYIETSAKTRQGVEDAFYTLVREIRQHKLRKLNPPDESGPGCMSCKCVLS

Chain of GDP-bound NRAS wild-type protein (P01111 whole entry): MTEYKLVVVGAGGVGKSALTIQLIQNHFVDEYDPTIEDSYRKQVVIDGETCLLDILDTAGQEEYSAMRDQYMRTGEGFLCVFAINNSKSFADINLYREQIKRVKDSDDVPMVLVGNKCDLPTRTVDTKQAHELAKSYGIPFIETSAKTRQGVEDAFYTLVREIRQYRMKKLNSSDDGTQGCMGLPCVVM

## CCCOC[C@H]1C(=O)N[C@@H]([C@@H](C)CC)C(=O)N(C2CC2)CC(=O)N(C)[C@H]2C/C=C\CCN(C2=O)[C@@H](Cc2ccc(C(F)(F)F)cc2)C(=O)N(C)CC(=O)N[C@@H](CCc2ccc(C(F)(F)F)c(OC)c2)C(=O)N2C[C@H](OCC)C[C@H]2C(=O)N(C)C2(CCC2)C(=O)N(C)[C@@H](C2CCCC2)C(=O)N(C)[C@H](C(=O)N(C)C)CC(=O)N1C [PP2318]
[1]; SPR
  NRAS/KRAS (ratio of KD value with respect to NRAS to KD value with respect to KRAS): A (a compound having 10 or more and less than 20 is denoted as A)
[2]; SPR
  HRAS/KRAS (ratio of KD value with respect to HRAS to KD value with respect to KRAS): A (a compound having 10 or more and less than 20 is denoted as A)

## CC[C@H](C)[C@@H]1NC(=O)[C@H](COC)N(C)C(=O)C[C@@H](C(=O)N2CCCCC2)N(C)C(=O)[C@H](C2CCCC2)N(C)C(=O)C2(CC(C)(C)C2)NC(=O)[C@@H]2C[C@@H](OC3CCC3)CN2C(=O)[C@H](CCc2cc(F)c(C(F)(F)F)c(F)c2)NC(=O)CN(C)C(=O)[C@H](Cc2ccc(C(F)(F)F)cc2)N2CC/C=C\C[C@@H](C2=O)N(C)C(=O)CN(C)C1=O [PP2664]
[1]; KD ratio NRAS/KRAS, class symbols
  NRAS/KRAS (ratio of KD value with respect to GDP-bound NRAS wild-type protein to KD value with respect to KRAS): A (a compound having 10 or more and less than 20 is denoted as A)
[2]; KD ratio HRAS/KRAS, class symbols
  HRAS/KRAS (ratio of KD value with respect to GDP-bound HRAS wild-type protein to KD value with respect to KRAS): B (a compound having 3 or more and less than 10 is denoted as B)

## CCO[C@@H]1C[C@H]2C(=O)NC3(CC(C)(C)C3)C(=O)N(C)[C@@H](C(CC)CC)C(=O)N(C)[C@H](C(=O)N(C)C)CC(=O)N(C)[C@@H](CC)C(=O)N[C@@H]([C@@H](C)CC)C(=O)N(C)CC(=O)N(C)[C@H]3C/C=C\CCN(C3=O)[C@@H](Cc3ccc(C)cc3)C(=O)N(C)CC(=O)N[C@@H](CCc3ccc(C(F)(F)F)c(OC)c3)C(=O)N2C1 [PP2170]
[1]; SPR
  NRAS/KRAS (ratio of KD value with respect to NRAS to KD value with respect to KRAS): A (a compound having 10 or more and less than 20 is denoted as A)
[2]; SPR
  HRAS/KRAS (ratio of KD value with respect to HRAS to KD value with respect to KRAS): A (a compound having 10 or more and less than 20 is denoted as A)

## CCO[C@@H]1C[C@H]2C(=O)NC3(CCC3)C(=O)N(C)[C@@H](C3CCCC3)C(=O)N(C)[C@H](C(=O)N(C)C)CC(=O)N(C)[C@@H](Cc3ccccc3)C(=O)N[C@@H]([C@@H](C)CC)C(=O)N(C)CC(=O)N(C)[C@H]3C/C=C\CCN(C3=O)[C@@H](Cc3ccc(C(F)(F)F)cc3)C(=O)N(C)CC(=O)N[C@@H](CCc3cc(F)c(C(F)(F)F)c(F)c3)C(=O)N2C1 [PP1116]
[1]; KD ratio, SPR
  NRAS/KRAS (ratio of KD value with respect to NRAS to KD value with respect to KRAS): A (a compound having 10 or more and less than 20 is denoted as A)
[2]; KD ratio, SPR
  HRAS/KRAS (ratio of KD value with respect to HRAS to KD value with respect to KRAS): A (a compound having 10 or more and less than 20 is denoted as A)

## CCO[C@@H]1C[C@H]2C(=O)NC3(CCC3)C(=O)N(C)[C@@H](C3CCCC3)C(=O)N(C)[C@H](C(=O)N3CCOCC3)CC(=O)N(C)[C@@H](CC(C)(C)C)C(=O)N[C@@H]([C@@H](C)CC)C(=O)N(C)CC(=O)N(C)[C@H]3CCCCCN(C3=O)[C@@H](Cc3ccc(C(F)(F)F)cc3)C(=O)N(C)CC(=O)N[C@@H](CCc3cc(F)c(C(F)(F)F)c(F)c3)C(=O)N2C1 [PP0684]
[1]; KD ratio NRAS/KRAS, SPR
  NRAS/KRAS (ratio of KD value with respect to GDP-bound NRAS wild-type protein to KD value with respect to KRAS): B (a compound having 3 or more and less than 10 is denoted as B)
[2]; KD ratio HRAS/KRAS, SPR
  HRAS/KRAS (ratio of KD value with respect to GDP-bound HRAS wild-type protein to KD value with respect to KRAS): B (a compound having 3 or more and less than 10 is denoted as B)

## CC[C@H](C)[C@@H]1NC(=O)[C@H](CC(C)C)N(C)C(=O)C[C@@H](C(=O)N(C)C)N(C)C(=O)[C@H](C2CCCC2)N(C)C(=O)C2(CCC2)NC(=O)[C@@H]2[C@@H](OCC(F)F)CCN2C(=O)[C@H](CCc2cc(F)c(C(F)(F)F)c(F)c2)NC(=O)CN(C)C(=O)[C@H](Cc2ccc(C(F)(F)F)cc2)N2CC/C=C\C[C@@H](C2=O)N(C)C(=O)CN(C)C1=O [PP1534]
[1]; SPR, KD ratio class
  NRAS/KRAS (ratio of KD value for GDP-bound NRAS wild-type protein to KD value for KRAS): AA (a compound having 20 or more is denoted as AA)
[2]; SPR, KD ratio class
  HRAS/KRAS (ratio of KD value for GDP-bound HRAS wild-type protein to KD value for KRAS): A (a compound having 10 or more and less than 20 is denoted as A)

## CCCN1C(=O)CN(C)C(=O)[C@@H]2CCN2C(=O)[C@H]([C@@H](C)CC)NC(=O)[C@H](CC(C)C)N(C)C(=O)C[C@@H](C(=O)N2CCOCC2)N(C)C(=O)[C@H](C2CCCC2)N(C)C(=O)C2(CCCC2)NC(=O)CN(C)C(=O)[C@H](CCc2ccc(C(F)(F)F)c(Cl)c2)NC(=O)CN(C)C(=O)[C@@H]1Cc1ccc(C(F)(F)F)cc1 [PP0314] ([NMeL]I[Aze][Sar][NPrPhe(4-CF3)][Sar][hPhe(3-Cl-4-CF3)][Sar][Ac5c][NMeGly(cPent)][NMeD]-Morpholide; lactam N-11)
[1]; KD ratio NRAS/KRAS, SPR
  NRAS/KRAS (ratio of KD for GDP-bound NRAS wild-type to KD for KRAS): B (a compound having 3 or more and less than 10 is denoted as B)
[2]; KD ratio HRAS/KRAS, SPR
  HRAS/KRAS (ratio of KD for GDP-bound HRAS wild-type to KD for KRAS): C (A compound having a KD ratio of 0.1 or more and less than 3 is denoted as C)
